Experimental data published in US8349811B2, “Stable 6-methoxy-2′,3′-dideoxyguanosine, method for preparing the same and pharmaceutical composition containing the same” (Nanjing Changao Pharmaceutical Science & Technology Co., …, priority 2008, dated 2013).
“Also recorded” adds a separate entry of the source. One block for each compound: values may come before it.

Experiments:
[1] = Water content of the product of the Examples by the Karl-Fischer method; type: physicochemical; conditions: after water absorption (Examples 1-3) or vacuum drying (Examples 4-5)
Procedure: 1 kg of powder of 6-methoxy-2′,3′-dideoxyguanosine with 2.7% (wt %) of water content is laid in a plate flat and placed in the environment with the temperature of 5 degrees centigrade and the humidity of 60% (wt %), is mixed every 1-4 hours, and the required product is obtained after 48 hours.
0.5 kg of powder of 6-methoxy-2′,3′-dideoxyguanosine with 1.5% (wt %) of water content is laid in a plate flat and placed in the environment with the temperature of 15 degrees centigrade and the humidity of 40% (wt %), is mixed every 3-5 hours, and the required product is obtained after 36 hours.
0.5 kg of powder of 6-methoxy-2′,3′-dideoxyguanosine with 3.2% (wt %) of water content is laid in a plate flat and placed in the environment with the temperature of 0 degrees centigrade and the humidity of 90% (wt %), is mixed every 2 hours, and the required product is obtained after 36 hours.
1.5 kg of powder of 6-methoxy-2′,3′-dideoxyguanosine with 60.5% (wt %) of water content is laid in a plate flat and placed in a vacuum drying box, anhydrous calcium chloride is taken as a drying agent, vacuumizing is carried out by a water pump at the temperature of 25 degrees centigrade, decompression drying is further carried out, and the required product is obtained after 48 hours.
1.0 kg of powder of 6-methoxy-2′,3′-dideoxyguanosine with 40.5% (wt %) of water content is laid in a plate flat and placed in a vacuum drying box, phosphorus pentoxide is taken as a drying agent, vacuum decompression drying is carried out at the temperature of 15 degrees centigrade, and the required product is obtained after 38 hours.

[2] = Moisture absorption and handling under the general conditions; type: physicochemical; conditions: for moisture absorption: general conditions
[3] = test system: DHBV DNA replication; assay: Suppression of DHBV DNA replication; conditions: competition with ddCTP
[4] = Acceleration test inspection at 30 degrees centigrade and humidity 90% (character and water content); type: physicochemical; conditions: for Acceleration Test Inspection, Water Content / Acceleration Test Inspection, Character: 30 degrees centigrade, humidity 90%
Procedure: (§1) Table 1 is a comparison table, wherein, the 6-methoxy-2′,3′-dideoxyguanosine with less than 6% (wt %) of water content is placed in different humidity environments at 5 degrees centigrade for carrying out water-absorbing tests, the products at the corresponding time points are placed in the environment with the temperature of 30 degrees centigrade and the humidity of 90% (wt %) for carrying out the acceleration test inspection, the sampling inspection are carried out at the 15th day, the 30th day and the 60th day respectively, and the inspection indexes comprise the character and the water content.

[5] = test system: hepatitis B virus (HBV); conditions: reported in Chinese patent CN1493301A; cited from earlier work
[6] = Water-absorbing test in different humidity environments at 5 degrees centigrade; type: physicochemical
Procedure: as §1

[7] = test system: HIV (Human Immunodeficiency Virus); assay: Anti-HIV experimental study of the inventors
[8] = Metabolism in plasma to ddG; type: in vitro ADME; conditions: metabolite 2′,3′-dideoxyguanosine (ddG)
[9] = product of placement time 14 hours, 15th Day
[10] = product of placement time 14 hours, 30th Day
[11] = product of placement time 14 hours, 60th Day
[12] = product of placement time 2 days, 15th Day
[13] = product of placement time 2 days, 30th Day
[14] = product of placement time 2 days, 60th Day
[15] = product of placement time 3 days, 15th Day
[16] = product of placement time 3 days, 30th Day
[17] = product of placement time 3 days, 60th Day
[18] = product of placement time 4 days, 15th Day
[19] = product of placement time 4 days, 30th Day
[20] = product of placement time 4 days, 60th Day
[21] = product of placement time 10 days, 15th Day
[22] = product of placement time 10 days, 30th Day
[23] = product of placement time 10 days, 60th Day

SMILES: COc1nc(N)nc2c1ncn2[C@H]1CC[C@@H](CO)O1 [stable 6-methoxy-2′,3′-dideoxyguanosine, 6-methoxy-2′,3′-dideoxyguanosine]
moisture absorption ([2]; stable form, water content 6-30% (wt %)): difficult to absorb the moisture | stability ([2]; stable form, water content 6-30% (wt %), room temperature): very stable at room temperature

SMILES: Nc1nc2c(ncn2[C@H]2CC[C@@H](COP(=O)(O)OP(=O)(O)OP(=O)(O)O)O2)c(=O)[nH]1 [ddGTP]
suppression of DHBV DNA replication [3]: can selectively compete with the ddCTP for suppressing the DHBV DNA replication

SMILES: COc1nc(N)nc2c1ncn2[C@H]1CC[C@@H](CO)O1 [Example 5, 6-methoxy-2′,3′-dideoxyguanosine]
water content of the required product [1]: 18.5 % (wt %)

Continued, in another order:

water content of the required product [1]: 12.5 % (wt %)
SMILES: COc1nc(N)nc2c1ncn2[C@H]1CC[C@@H](CO)O1 [Example 2, 6-methoxy-2′,3′-dideoxyguanosine]

water content of the required product [1]: 23.5 % (wt %)
SMILES: COc1nc(N)nc2c1ncn2[C@H]1CC[C@@H](CO)O1 [Example 1, 6-methoxy-2′,3′-dideoxyguanosine]

water content of the required product [1]: 22.5 % (wt %)
SMILES: COc1nc(N)nc2c1ncn2[C@H]1CC[C@@H](CO)O1 [Example 4, 6-methoxy-2′,3′-dideoxyguanosine]

Acceleration Test Inspection, Water Content ([4]; product of placement time 1 hour, 15th Day): 23.4 wt % | Acceleration Test Inspection, Water Content ([4]; product of placement time 1 hour, 30th Day): 22.4 wt % | Acceleration Test Inspection, Water Content ([4]; product of placement time 1 hour, 60th Day): 21.8 wt % | Acceleration Test Inspection, Water Content ([4]; product of placement time 2 hours, 15th Day): 22.9 wt % | Acceleration Test Inspection, Water Content ([4]; product of placement time 2 hours, 30th Day): 22.1 wt % | Acceleration Test Inspection, Water Content ([4]; product of placement time 2 hours, 60th Day): 21.5 wt % | Acceleration Test Inspection, Character [4, 9]: Powder | Acceleration Test Inspection, Water Content [4, 9]: 22.7 wt % | Acceleration Test Inspection, Character [4, 10]: Powder | Acceleration Test Inspection, Water Content [4, 10]: 22.0 wt % | Acceleration Test Inspection, Character [4, 11]: Powder | Acceleration Test Inspection, Water Content [4, 11]: 21.4 wt % | Acceleration Test Inspection, Character [4, 12]: Powder | Acceleration Test Inspection, Water Content [4, 12]: 23.0 wt % | Acceleration Test Inspection, Character [4, 13]: Powder | Acceleration Test Inspection, Water Content [4, 13]: 22.5 wt % | Acceleration Test Inspection, Character [4, 14]: Powder | Acceleration Test Inspection, Water Content [4, 14]: 21.6 wt % | Acceleration Test Inspection, Character [4, 15]: Powder | Acceleration Test Inspection, Water Content [4, 15]: 22.1 wt % | Acceleration Test Inspection, Character [4, 16]: Powder | Acceleration Test Inspection, Water Content [4, 16]: 21.8 wt % | Acceleration Test Inspection, Character [4, 17]: Powder | Acceleration Test Inspection, Water Content [4, 17]: 21.5 wt % | Acceleration Test Inspection, Character [4, 18]: Powder | Acceleration Test Inspection, Water Content [4, 18]: 22.9 wt % | Acceleration Test Inspection, Character [4, 19]: Powder | Acceleration Test Inspection, Water Content [4, 19]: 21.8 wt % | Acceleration Test Inspection, Character [4, 20]: Powder | Acceleration Test Inspection, Water Content [4, 20]: 21.8 wt % | Acceleration Test Inspection, Character [4, 21]: Powder | Acceleration Test Inspection, Water Content [4, 21]: 22.0 wt % | Acceleration Test Inspection, Character [4, 22]: Powder | Acceleration Test Inspection, Water Content [4, 22]: 21.7 wt % | Acceleration Test Inspection, Character [4, 23]: Powder | Acceleration Test Inspection, Water Content [4, 23]: 21.9 wt % | character ([4]; water content greater than 6% (wt %), summary of Table 1): basically kept unchanged | Water Content When Placed in Different Humidity Environments ([6]; Humidity 40%, placement time 0 hour): 2.7 wt % | Water Content When Placed in Different Humidity Environments ([6]; Humidity 40%, placement time 1 hour): 4.3 wt % | Water Content When Placed in Different Humidity Environments ([6]; Humidity 40%, placement time 2 hours): 5.4 wt % | Water Content When Placed in Different Humidity Environments ([6]; Humidity 40%, placement time 14 hours): 8.7 wt % | Water Content When Placed in Different Humidity Environments ([6]; Humidity 40%, placement time 2 days): 12.6 wt % | Water Content When Placed in Different Humidity Environments ([6]; Humidity 40%, placement time 3 days): 21.8 wt % | Water Content When Placed in Different Humidity Environments ([6]; Humidity 40%, placement time 4 days): 22.4 wt % | Water Content When Placed in Different Humidity Environments ([6]; Humidity 40%, placement time 10 days): 21.8 wt % | Water Content When Placed in Different Humidity Environments ([6]; Humidity 60%, placement time 0 hour): 2.7 wt % | Water Content When Placed in Different Humidity Environments ([6]; Humidity 60%, placement time 1 hour): 4.7 wt % | Water Content When Placed in Different Humidity Environments ([6]; Humidity 60%, placement time 2 hours): 5.7 wt % | Water Content When Placed in Different Humidity Environments ([6]; Humidity 60%, placement time 14 hours): 8.6 wt % | Water Content When Placed in Different Humidity Environments ([6]; Humidity 60%, placement time 2 days): 16.3 wt % | Water Content When Placed in Different Humidity Environments ([6]; Humidity 60%, placement time 3 days): 22.5 wt % | Water Content When Placed in Different Humidity Environments ([6]; Humidity 60%, placement time 4 days): 23.64 wt % | Water Content When Placed in Different Humidity Environments ([6]; Humidity 60%, placement time 10 days): 23.5 wt % | Water Content When Placed in Different Humidity Environments ([6]; Humidity 90%, placement time 0 hour): 2.7 wt % | Water Content When Placed in Different Humidity Environments ([6]; Humidity 90%, placement time 1 hour): 5.1 wt % | Water Content When Placed in Different Humidity Environments ([6]; Humidity 90%, placement time 2 hours): 5.8 wt % | Water Content When Placed in Different Humidity Environments ([6]; Humidity 90%, placement time 14 hours): 8.9 wt % | Water Content When Placed in Different Humidity Environments ([6]; Humidity 90%, placement time 2 days): 15.9 wt % | Water Content When Placed in Different Humidity Environments ([6]; Humidity 90%, placement time 3 days): 22.7 wt % | Water Content When Placed in Different Humidity Environments ([6]; Humidity 90%, placement time 4 days): 22.8 wt % | Water Content When Placed in Different Humidity Environments ([6]; Humidity 90%, placement time 10 days): 21.9 wt %
SMILES: COc1nc(N)nc2c1ncn2[C@H]1CC[C@@H](CO)O1 [6-methoxy-2′,3′-dideoxyguanosine]
anti-HBV activity [5]: anti-HBV activity | anti-HIV activity [7]: plays the role of fighting against the HIV | metabolism in plasma [8]: rapidly metabolized in plasma to 2′,3′-dideoxyguanosine (ddG) | behaviour during the smashing process ([2]; water content higher than 30% (wt %)): easy to be bonded into blocks during the smashing process | moisture absorption ([2]; water content lower than 6% (wt %)): easy to absorb the water; also recorded: very easy to absorb moisture and be blocked

water content of the required product [1]: 23.2 % (wt %)
SMILES: COc1nc(N)nc2c1ncn2[C@H]1CC[C@@H](CO)O1 [Example 3, 6-methoxy-2′,3′-dideoxyguanosine]
